“Also recorded” adds a separate entry of the source.
Experiments:
Bifidobacterium bacteria = test: Human fecal culture system, relative abundance by 16S V3-V4 amplicon sequencing (Test Example 1); type: cell-based; details: 1% substance; for Change in relative abundance of Bifidobacterium bacteria: feces of two healthy adults, 2 days at 37° C., anaerobic, pH 6.5, versus control without substance
Procedure: (§1) Each substance to be evaluated was added at a concentration of 1% to a diluted fecal solution in which feces of healthy adult origin were suspended in the GAM Semisolid without Dextrose “Nissui” (Nissui Pharmaceutical Co., Ltd.) for GAM glycolysis from which agar was removed by filtration. Fecal materials of two individuals were each tested without mixing them. The medium used for the test was allowed to stand in an anaerobic glove box at least overnight before use. For the culture, a microbioreactor BioLector Pro […]-Labs) and a plate with microfluidic channels were used, and the culture was performed for 2 days at 37° C. and 600 rpm in an anaerobic environment while maintaining a constant pH of 6.5 with 1.5 N HCl and sodium hydroxide during the culture. The prebiotic abilities of the added substances were evaluated by comparing the bacterial flora obtained after the culture with that obtained under the control condition in which the substances to be evaluated were not added. DNA was extracted and purified from the diluted fecal solutions after the culture by using Maxwell RSC PureFood GMO & Authentication Kit (Promega), and amplicon sequencing of the V3-V4 region was performed by using MiSeq (Illumina). The resulting fastq files were analyzed with QIIME2 (https://quime2.org/) to calculate the relative abundance of each intestinal bacterium.

Parabacteroides bacteria [1] = test: as above; type: cell-based; details: 1% substance, feces of two healthy adults, 2 days at 37° C., anaerobic, pH 6.5, versus control without substance
Procedure: as §1

bifidobacteria = details: known from Non-patent documents 7 and 8; cited from earlier work
Parabacteroides bacteria [2] = test: Human fecal culture, 60 subjects, genus-level analysis (Test Example 3); type: cell-based; details: 0.25% substance, n=60 fecal samples, 1 day at 37° C., anaerobic, versus distilled water; Wilcoxon's signed rank test, p=3.59×10^−8
Procedure: Galactosylkojibiose (trisaccharide fraction) was added at a concentration of 0.25% to a diluted fecal solution in which feces of healthy adult origin were suspended in the GAM Semisolid without Dextrose “Nissui” (Nissui Pharmaceutical Co., Ltd.) from which agar was removed by filtration (n=60). The galactosylkojibiose (trisaccharide fraction) was the fractionated and purified product containing 4′-galactosylkojibiose as the main ingredient prepared in Production Example 2. The fecal samples for 60 subjects were aliquoted under refrigerated conditions immediately after excretion and frozen at −80° C. until use. The test was performed for each of the fecal samples without mixing them. The medium used for the test was allowed to stand in an anaerobic glove box at least overnight before use. For the culture, a 96-well deepwell plate was used, and the culture was performed for 1 day at 37° C. in an anaerobic environment. The prebiotic ability of the added evaluation substance was evaluated by comparing the bacterial flora observed after the culture with that obtained under the control condition in which distilled water was added instead of the evaluation substance. […] The resulting fastq files were analyzed with QIIME2 (https://qiime2.org/) to calculate the relative abundance of each intestinal bacterium.

[3] = test system: Parabacteroides distasonis; test: Human fecal culture, 60 subjects, species-level analysis (Test Example 3); type: cell-based; details: 0.25% substance, n=60 fecal samples, 1 day at 37° C., anaerobic, versus distilled water; Wilcoxon's signed rank order test, p=2.07×10^−8
Procedure: Galactosylkojibiose (trisaccharide fraction) was added at a concentration of 0.25% to a diluted fecal solution in which feces of healthy adult origin were suspended in the GAM Semisolid without Dextrose “Nissui” (Nissui Pharmaceutical Co., Ltd.) from which agar was removed by filtration (n=60). The galactosylkojibiose (trisaccharide fraction) was the fractionated and purified product containing 4'-galactosylkojibiose as the main ingredient prepared in Production Example 2. The fecal samples for 60 subjects were aliquoted under refrigerated conditions immediately after excretion and frozen at -80° C. until use. The test was performed for each of the fecal samples without mixing them. The medium used for the test was allowed to stand in an anaerobic glove box at least overnight before use. […] The prebiotic ability of the added evaluation substance was evaluated by comparing the bacterial flora observed after the culture with that obtained under the control condition in which distilled water was added instead of the evaluation substance. […] The resulting fastq files were analyzed with QIIME2 (https://qiime2.org/) to calculate the relative abundance of each intestinal bacterium. […] The resulting fastq files were analyzed with QIIME2 (https://qiime2.org/), and confirmed that it was classified as that of […] at the bacterial species level. […]

lactase = target: T1, lactase (Kluyveromyces lactis, UniProt P00723); test: Lactase treatment of the trisaccharide fraction, LCMS analysis; type: biochemical; details: 10% in phosphate-citrate buffer pH 6.5, 0.1% lactase (GODO-YNL), 40° C.
T1 construct: purchased Godo Shusei Co., Ltd. GODO-YNL
T1 sequence (P00723 whole entry): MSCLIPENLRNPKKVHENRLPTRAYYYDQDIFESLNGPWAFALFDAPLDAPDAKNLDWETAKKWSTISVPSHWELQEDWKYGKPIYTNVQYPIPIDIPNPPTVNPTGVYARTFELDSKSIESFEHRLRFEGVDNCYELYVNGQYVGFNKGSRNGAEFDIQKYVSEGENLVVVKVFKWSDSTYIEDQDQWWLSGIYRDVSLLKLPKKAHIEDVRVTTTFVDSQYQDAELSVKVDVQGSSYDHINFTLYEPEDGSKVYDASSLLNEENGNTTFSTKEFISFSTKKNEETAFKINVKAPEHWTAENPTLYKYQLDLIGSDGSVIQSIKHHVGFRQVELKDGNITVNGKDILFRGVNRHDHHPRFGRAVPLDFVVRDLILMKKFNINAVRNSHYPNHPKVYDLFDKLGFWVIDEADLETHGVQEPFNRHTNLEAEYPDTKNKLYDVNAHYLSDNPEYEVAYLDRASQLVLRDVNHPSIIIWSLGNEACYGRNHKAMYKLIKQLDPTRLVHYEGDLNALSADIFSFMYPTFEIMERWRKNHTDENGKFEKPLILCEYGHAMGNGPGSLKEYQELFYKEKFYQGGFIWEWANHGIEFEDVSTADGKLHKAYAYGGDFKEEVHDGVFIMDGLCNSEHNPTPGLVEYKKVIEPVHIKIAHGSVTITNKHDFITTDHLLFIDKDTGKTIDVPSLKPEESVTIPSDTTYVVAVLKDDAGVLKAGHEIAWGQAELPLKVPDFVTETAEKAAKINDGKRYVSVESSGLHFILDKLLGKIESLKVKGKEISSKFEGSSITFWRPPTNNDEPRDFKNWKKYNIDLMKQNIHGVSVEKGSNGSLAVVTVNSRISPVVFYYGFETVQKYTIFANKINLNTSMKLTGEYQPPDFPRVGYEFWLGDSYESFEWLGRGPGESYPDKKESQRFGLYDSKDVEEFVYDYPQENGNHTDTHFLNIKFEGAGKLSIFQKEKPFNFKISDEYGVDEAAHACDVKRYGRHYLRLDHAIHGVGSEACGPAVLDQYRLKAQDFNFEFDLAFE
Procedure: The purified trisaccharide fraction was lyophilized and dissolved in a phosphate-citrate buffer, pH 6.5 at a concentration of 10%. Then, 0.1% of lactase (product name GODO-YNL, Godo Shusei Co., Ltd.) was added to the solution, and the enzymatic reaction was allowed at 40° C.

For `OCC1OC(O)C(O[C@H]2OC(CO)[C@@H](O)[C@H](O)C2O)[C@@H](O)[C@@H]1O` (stereo partly drawn) [kojibiose], the “Change in relative abundance of Bifidobacterium bacteria” value (Bifidobacterium bacteria) is listed as “increased”, the “Change in relative abundance of Parabacteroides bacteria” value (Parabacteroides bacteria [1]) is listed as “increase” and the “Effect on growth of bifidobacteria” value (bifidobacteria) is listed as “growth-promoting effect”.

In the case of `OCC1O[C@H](OC2C(O)[C@H](O[C@@H]3OC(CO)[C@H](O)C(O)C3O)C(CO)O[C@H]2O)C(O)C(O)[C@@H]1O` (stereo partly drawn) [α-D-Glcp-(1→2)-[β-D-Galp-(1→4)-]D-Glcp], the “Increase of relative abundance of Bifidobacterium bacteria compared with kojibiose” value (Bifidobacterium bacteria; all samples of the two subjects, comparison with kojibiose) is reported as “more significantly increased”, the “Change in relative abundance of Bifidobacterium bacteria” value (Bifidobacterium bacteria) is reported as “increased” and the “Change in relative abundance of Parabacteroides bacteria” value (Parabacteroides bacteria [1]) is reported as “increase”. For the same compound, the “Change in relative abundance of Parabacteroides bacteria (genus level)” value (Parabacteroides bacteria [2]) was “significant increase”, the “Change in relative abundance of species indicated as “Parabacteroides_” (judged Parabacteroides distasonis)” value [3] was “significant increase; also recorded: significantly increased” and the “Product formed by lactase treatment” value (lactase) was “formation of kojibiose”.
